The structures appear in SMILES notation. Like-named read-outs stand apart in the source and are kept apart here.

Common to all, as to type: binding
In assay [1] the target is T1, HeLa cell extract proteins (Homo sapiens, UniProt Q9NQC3).
T1 construct: endogenous in cells; host or cells: HeLa cell extract
T1 sequence (Q9NQC3 1-1192): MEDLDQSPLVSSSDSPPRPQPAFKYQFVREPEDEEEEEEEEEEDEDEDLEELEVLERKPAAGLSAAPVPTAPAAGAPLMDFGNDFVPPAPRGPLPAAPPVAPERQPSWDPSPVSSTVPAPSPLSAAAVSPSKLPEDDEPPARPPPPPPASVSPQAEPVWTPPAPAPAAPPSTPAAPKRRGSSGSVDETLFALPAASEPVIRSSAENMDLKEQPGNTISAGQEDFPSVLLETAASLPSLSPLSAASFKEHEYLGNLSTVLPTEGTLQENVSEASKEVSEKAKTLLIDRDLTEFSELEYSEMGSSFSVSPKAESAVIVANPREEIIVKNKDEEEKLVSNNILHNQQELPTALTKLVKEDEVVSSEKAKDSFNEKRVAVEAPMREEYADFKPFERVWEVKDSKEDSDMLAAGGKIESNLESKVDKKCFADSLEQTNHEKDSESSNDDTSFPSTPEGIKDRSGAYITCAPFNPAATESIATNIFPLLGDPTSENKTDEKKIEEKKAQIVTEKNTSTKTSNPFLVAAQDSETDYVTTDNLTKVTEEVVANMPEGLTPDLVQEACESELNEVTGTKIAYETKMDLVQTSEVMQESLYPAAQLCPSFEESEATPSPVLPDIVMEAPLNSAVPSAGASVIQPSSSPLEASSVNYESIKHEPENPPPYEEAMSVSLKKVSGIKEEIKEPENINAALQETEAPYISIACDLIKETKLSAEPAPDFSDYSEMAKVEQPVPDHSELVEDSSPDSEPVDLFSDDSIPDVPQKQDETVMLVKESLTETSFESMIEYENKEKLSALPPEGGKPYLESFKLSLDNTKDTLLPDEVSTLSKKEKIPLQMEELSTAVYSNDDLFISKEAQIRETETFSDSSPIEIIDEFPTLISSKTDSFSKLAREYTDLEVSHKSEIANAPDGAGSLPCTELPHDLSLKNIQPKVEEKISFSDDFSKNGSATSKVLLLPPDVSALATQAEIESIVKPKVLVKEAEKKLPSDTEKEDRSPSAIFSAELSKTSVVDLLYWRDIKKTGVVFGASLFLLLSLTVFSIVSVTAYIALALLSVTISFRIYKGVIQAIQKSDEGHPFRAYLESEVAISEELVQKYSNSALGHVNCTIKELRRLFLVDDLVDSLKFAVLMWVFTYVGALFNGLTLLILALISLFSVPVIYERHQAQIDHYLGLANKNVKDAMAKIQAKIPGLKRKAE
Conditions: HeLa; protein RTN4.

Assay [2] addresses T2, HeLa cell extract proteins (Homo sapiens, UniProt P55884).
T2 construct: endogenous in cells; host or cells: HeLa cell extract
Conditions: protein EIF3B; HeLa.

The target in assay [3] is T3, HeLa cell extract proteins (Homo sapiens, UniProt Q9UBB4).
T3 construct: endogenous in cells; host or cells: HeLa cell extract
T3 sequence (Q9UBB4 1-475): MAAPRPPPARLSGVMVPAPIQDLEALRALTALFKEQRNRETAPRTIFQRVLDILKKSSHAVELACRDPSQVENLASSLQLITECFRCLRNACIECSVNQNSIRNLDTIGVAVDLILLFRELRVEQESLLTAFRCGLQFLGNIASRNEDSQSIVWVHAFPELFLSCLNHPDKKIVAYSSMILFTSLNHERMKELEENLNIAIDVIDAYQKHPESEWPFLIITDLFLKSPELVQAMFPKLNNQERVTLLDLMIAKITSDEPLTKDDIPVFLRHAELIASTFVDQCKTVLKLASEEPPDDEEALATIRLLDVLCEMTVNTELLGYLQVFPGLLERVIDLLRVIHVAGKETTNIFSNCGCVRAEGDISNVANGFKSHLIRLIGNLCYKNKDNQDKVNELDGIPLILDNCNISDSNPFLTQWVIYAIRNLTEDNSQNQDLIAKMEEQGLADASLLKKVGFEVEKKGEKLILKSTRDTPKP
Conditions: protein Ataxin-10; HeLa.

Assay [4] addresses T4, HeLa cell extract proteins (Homo sapiens, UniProt P49257).
T4 construct: endogenous in cells; host or cells: HeLa cell extract
T4 sequence (P49257 31-510): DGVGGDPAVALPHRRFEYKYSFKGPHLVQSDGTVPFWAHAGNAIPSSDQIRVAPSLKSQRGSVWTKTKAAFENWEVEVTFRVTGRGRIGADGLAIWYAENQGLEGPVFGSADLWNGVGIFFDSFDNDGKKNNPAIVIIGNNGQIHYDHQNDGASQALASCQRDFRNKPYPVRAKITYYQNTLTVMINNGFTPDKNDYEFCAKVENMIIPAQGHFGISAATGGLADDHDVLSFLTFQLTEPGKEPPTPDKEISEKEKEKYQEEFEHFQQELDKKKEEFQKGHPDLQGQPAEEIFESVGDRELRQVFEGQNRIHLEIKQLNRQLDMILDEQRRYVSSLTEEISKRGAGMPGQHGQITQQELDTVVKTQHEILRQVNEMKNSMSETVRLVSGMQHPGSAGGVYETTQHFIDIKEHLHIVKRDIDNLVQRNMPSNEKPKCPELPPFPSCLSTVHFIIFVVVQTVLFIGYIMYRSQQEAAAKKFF
The conditions noted are these: protein LMAN1; HeLa.

For assay [5], the target named is T5, HeLa cell extract proteins (Homo sapiens, UniProt Q96S59).
T5 construct: endogenous in cells; host or cells: HeLa cell extract
T5 sequence (Q96S59 whole entry): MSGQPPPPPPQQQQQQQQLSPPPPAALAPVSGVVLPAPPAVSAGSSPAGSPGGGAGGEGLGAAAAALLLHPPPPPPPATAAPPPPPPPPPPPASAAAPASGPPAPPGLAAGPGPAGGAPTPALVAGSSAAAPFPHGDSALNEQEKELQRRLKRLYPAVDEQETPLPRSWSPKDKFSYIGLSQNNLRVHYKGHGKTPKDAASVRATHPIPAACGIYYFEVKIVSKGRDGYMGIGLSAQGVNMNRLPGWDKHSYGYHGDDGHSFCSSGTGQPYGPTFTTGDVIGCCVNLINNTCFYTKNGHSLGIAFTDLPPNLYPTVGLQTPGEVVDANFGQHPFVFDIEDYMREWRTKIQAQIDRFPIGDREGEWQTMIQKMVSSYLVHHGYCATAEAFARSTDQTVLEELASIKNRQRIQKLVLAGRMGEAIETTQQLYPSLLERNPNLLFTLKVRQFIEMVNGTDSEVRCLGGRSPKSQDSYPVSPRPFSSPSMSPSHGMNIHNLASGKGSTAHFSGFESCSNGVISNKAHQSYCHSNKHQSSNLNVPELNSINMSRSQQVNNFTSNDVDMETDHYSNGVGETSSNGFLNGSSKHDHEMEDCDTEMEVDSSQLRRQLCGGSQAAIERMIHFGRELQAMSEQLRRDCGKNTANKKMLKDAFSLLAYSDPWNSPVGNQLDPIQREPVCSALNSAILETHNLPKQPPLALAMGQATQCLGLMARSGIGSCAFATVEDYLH

Assay [6] has as its target T6, HeLa cell extract proteins (Homo sapiens, UniProt Q01469).
T6 construct: endogenous in cells; host or cells: HeLa cell extract

Assay [7] concerns the target T7, HeLa cell extract proteins (Homo sapiens, UniProt P52294).
T7 construct: endogenous in cells; host or cells: HeLa cell extract

The target of assay [8] is T8, HeLa cell extract proteins (Homo sapiens, UniProt P55084).
T8 construct: endogenous in cells; host or cells: HeLa cell extract
T8 sequence (P55084 34-474): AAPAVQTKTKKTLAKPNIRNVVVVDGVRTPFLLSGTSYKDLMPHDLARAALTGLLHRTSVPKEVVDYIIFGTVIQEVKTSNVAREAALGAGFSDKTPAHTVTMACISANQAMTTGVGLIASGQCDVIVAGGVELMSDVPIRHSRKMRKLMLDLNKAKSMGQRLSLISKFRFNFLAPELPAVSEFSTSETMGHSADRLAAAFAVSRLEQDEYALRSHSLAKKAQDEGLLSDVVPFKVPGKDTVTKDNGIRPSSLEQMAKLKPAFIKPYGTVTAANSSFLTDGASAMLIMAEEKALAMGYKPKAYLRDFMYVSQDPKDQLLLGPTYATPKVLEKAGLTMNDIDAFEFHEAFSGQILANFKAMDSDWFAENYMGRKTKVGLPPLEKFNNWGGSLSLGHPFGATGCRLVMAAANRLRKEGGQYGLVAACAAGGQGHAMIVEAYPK

Assay [9] deals with T9, HeLa cell extract proteins (Homo sapiens, UniProt P62081).
T9 construct: endogenous in cells; host or cells: HeLa cell extract

T7 sequence (P52294 whole entry): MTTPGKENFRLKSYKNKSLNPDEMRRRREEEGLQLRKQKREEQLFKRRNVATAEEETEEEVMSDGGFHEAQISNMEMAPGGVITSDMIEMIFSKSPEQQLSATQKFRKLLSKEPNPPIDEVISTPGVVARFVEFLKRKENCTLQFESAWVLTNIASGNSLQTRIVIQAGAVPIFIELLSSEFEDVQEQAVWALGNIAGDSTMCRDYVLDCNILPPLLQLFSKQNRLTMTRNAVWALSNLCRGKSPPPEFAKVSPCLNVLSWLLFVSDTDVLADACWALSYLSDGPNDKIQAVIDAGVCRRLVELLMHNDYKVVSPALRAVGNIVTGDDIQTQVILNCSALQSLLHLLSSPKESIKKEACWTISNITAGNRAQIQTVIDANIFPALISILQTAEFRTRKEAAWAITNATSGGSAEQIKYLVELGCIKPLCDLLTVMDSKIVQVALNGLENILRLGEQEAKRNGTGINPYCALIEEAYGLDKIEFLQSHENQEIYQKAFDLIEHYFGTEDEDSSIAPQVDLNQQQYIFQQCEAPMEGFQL
T6 sequence (Q01469 whole entry): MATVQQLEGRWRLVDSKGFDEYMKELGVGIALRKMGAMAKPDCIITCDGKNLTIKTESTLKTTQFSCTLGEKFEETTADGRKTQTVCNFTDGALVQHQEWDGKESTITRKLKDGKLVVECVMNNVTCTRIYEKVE
T2 sequence (P55884 whole entry): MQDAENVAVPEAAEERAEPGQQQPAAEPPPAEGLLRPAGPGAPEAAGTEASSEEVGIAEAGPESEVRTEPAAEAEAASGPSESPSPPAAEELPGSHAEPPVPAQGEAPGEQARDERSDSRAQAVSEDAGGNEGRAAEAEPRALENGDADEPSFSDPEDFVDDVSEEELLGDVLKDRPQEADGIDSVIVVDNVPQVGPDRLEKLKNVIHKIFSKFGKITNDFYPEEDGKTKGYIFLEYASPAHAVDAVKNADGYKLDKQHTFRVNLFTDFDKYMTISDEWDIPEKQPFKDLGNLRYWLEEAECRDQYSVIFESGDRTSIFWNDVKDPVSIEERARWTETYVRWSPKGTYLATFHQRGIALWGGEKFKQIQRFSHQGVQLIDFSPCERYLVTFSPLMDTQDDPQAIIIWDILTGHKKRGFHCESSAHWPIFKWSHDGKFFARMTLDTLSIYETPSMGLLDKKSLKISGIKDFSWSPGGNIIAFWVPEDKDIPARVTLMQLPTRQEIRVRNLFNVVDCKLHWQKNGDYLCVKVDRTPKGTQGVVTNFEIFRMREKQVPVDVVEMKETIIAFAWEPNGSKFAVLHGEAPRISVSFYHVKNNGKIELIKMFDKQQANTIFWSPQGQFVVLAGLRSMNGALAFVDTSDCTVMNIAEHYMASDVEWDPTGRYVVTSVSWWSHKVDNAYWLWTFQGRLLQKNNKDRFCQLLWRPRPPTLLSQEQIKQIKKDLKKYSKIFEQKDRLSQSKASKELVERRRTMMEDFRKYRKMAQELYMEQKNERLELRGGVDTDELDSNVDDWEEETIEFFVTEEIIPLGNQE

As for `CCCCCCOc1cccc(Cc2cnc(N)nc2N)c1` [compound 2], the “fold changes relative to vehicle control” value was 1.21 in assay [1], 1.68 in assay [2], 1.4 in assay [3] and 1.57 in assay [4].
As for `NCCOCCOCC(=O)Nc1nc2ncc(CNc3ccc(C(=O)NC(CCC(=O)O)C(=O)O)cc3)nc2c(=O)[nH]1` (centres unmarked) [compound 6], the “fold changes relative to vehicle control” value was 0.96 in assay [5] (protein RANBP9, HeLa); 1.3 in [6] (protein FABP5, HeLa); 0.98 in [7] (HeLa, protein KPNA1); 1.12 in [8] (HeLa, protein HADHB); 1.06 in [9] (HeLa, protein RPS7).
In the case of `CCCCCCOc1ccc(Cc2cnc(N)nc2N)cc1` [compound 1], the “fold changes relative to vehicle control” value is reported as 0.39 in assay [1], 0.99 in assay [2], 1.14 in assay [3] and 1.17 in assay [4].
In the case of `Nc1nc2c(c(=O)[nH]1)N(C=O)C(CNc1ccc(C(=O)N[C@@H](CCC(=O)O)C(=O)O)cc1)CN2` (some centres unmarked) [LEU, leucovorin], the “fold changes relative to vehicle control” value in assay [5] (protein RANBP9, HeLa) came to 1.03; in assay [6] (protein FABP5, HeLa) it was 1; in assay [7] (HeLa, protein KPNA1), 0.9; in assay [8] (HeLa, protein HADHB), 0.85; in [9] (HeLa, protein RPS7) it was 0.94.
`NCCCNc1ccc(C(=O)NC(CCC(=O)O)C(=O)O)cc1` (centres unmarked) [compound 7]: the “fold changes relative to vehicle control” value is 1.65 in assay [5] (protein RANBP9, HeLa); 1.1 in [6] (protein FABP5, HeLa); 0.93 in assay [7] (HeLa, protein KPNA1); 1.04 in [8] (HeLa, protein HADHB); 0.88 in assay [9] (HeLa, protein RPS7).
Regarding `Nc1nc2[nH]cc(CCc3ccc(C(=O)N[C@@H](CCC(=O)O)C(=O)O)cc3)c2c(=O)[nH]1` [PTX, pemetrexed], the “fold changes relative to vehicle control” value was found to be 1.05 in assay [5]; 1.45 in [6]; 0.87 in [7]; 0.94 in assay [8]; 0.92 in assay [9].
`Nc1nc2cccc(-c3ccccc3)c2n1Cc1ccc(Cl)c(Cl)c1` [compound 3]: the “fold changes relative to vehicle control” value in assay [1] turned out to be 1; in assay [2] it was 1.2; in assay [3] it was 1.04; in assay [4], 0.87.

For the origin of these results see PMC6199744, “Development of Chemical Proteomics for the Folateome and Analysis of the Kinetoplastid Folateome” (ACS Infectious Diseases, 2018).
